Reference: ChEMBL document CHEMBL1141665, “Quantitative structure-activity relationship studies of a series of non-benzodiazepine structural ligands binding to benzodiazepine receptor” (Eur J Med Chem, 2008)

Test: Displacement of [3H]diazepam from GABAA/BzR in rat brain membrane
Type: cell membranes

pIC50	SMILES
6.12	Brc1ccc2[nH]c3c4c5ccccc5nc-4c[nH]c3c2c1
7.55	Brc1cccc2c1[nH]c1c3c4ccccc4nc-3c[nH]c12
5.94	Cn1c2ccccc2c2c3[nH]c4ccccc4c3ncc21
5.4	Oc1cc2c3ccccc3nc-2c[nH]1
8.4	c1ccc2c(c1)[nH]c1c2ncc2[nH]c3ccccc3c21
6.15	Clc1cccc2[nH]c3c4c5ccccc5nc-4c[nH]c3c12
6.65	Cc1ccc2[nH]c3c4c5ccccc5nc-4c[nH]c3c2c1
8.22	Fc1ccc2[nH]c3c4c5ccccc5nc-4c[nH]c3c2c1
7.92	Fc1cccc2c1[nH]c1c3c4ccccc4nc-3c[nH]c12
5.67	Clc1ccc2[nH]c3c4c5ccccc5nc-4c[nH]c3c2c1
6.24	Oc1cccc2[nH]c3c4c5ccccc5nc-4c[nH]c3c12
8.96	Cc1cc(-n2[nH]c3c(cnc4cc(Cl)ccc43)c2=O)cs1
8.87	Cc1ccc2c(c1)ncc1c(=O)n(-c3csc(C)c3)[nH]c12
8.99	O=c1c2cnc3ccccc3c2[nH]n1-c1csc(Cl)c1
8.99	O=c1c2cnc3ccccc3c2[nH]n1-c1ccsc1
9.05	Cc1cc(-n2[nH]c3c(cnc4cc(F)ccc43)c2=O)cs1
9.35	Cc1cc(-n2[nH]c3c(cnc4ccccc43)c2=O)cs1
6.05	COc1ccc2[nH]c3c4c5ccccc5nc-4c[nH]c3c2c1
7.72	Brc1ccc2c(c1)[nH]c1c3c4ccccc4nc-3c[nH]c12
9.06	Cc1cc(-n2nc3c4cc(Cl)ccc4[nH]cc-3c2=O)cs1
9.27	Cc1ccc2[nH]cc3c(=O)n(-c4csc(C)c4)nc-3c2c1
9.29	Cc1cc(-n2nc3c4cc(F)ccc4[nH]cc-3c2=O)cs1
6.52	Cc1cc(-n2nc3c4ccccc4n(C)cc-3c2=O)cs1
6.91	COc1cc2c(cn1)[nH]c1ccccc12
7.35	Clc1cc2c(cn1)[nH]c1ccccc12
8	Clc1ccc2c(c1)[nH]c1c2ncc2[nH]c3ccccc3c21

pIC50	SMILES
8.1	COc1ccc2c(c1)[nH]c1c2ncc2[nH]c3ccccc3c21
8.22	Brc1ccc2[nH]c3cnc4c5ccccc5[nH]c4c3c2c1
5.8	c1ccc(Oc2ccc3[nH]c4c(ncc5[nH]c6ccccc6c54)c3c2)cc1
5.72	Cn1c2ccccc2c2c1ccc1c3ccccc3n(C)c12
6.9	O=[N+]([O-])c1cc2c3ccccc3nc-2c[nH]1
5.77	CCOC(=O)c1cc2c(cn1)sc1ccccc12
8.1	Cc1ccc2c(c1)[nH]c1c3c4ccccc4nc-3c[nH]c12
7.08	Cc1cccc2c1[nH]c1c3c4ccccc4nc-3c[nH]c12
6.17	CCOC(=O)c1cc2c(cn1)Cc1ccccc1-2
6.6	COc1cccc2[nH]c3c4c5ccccc5nc-4c[nH]c3c12
6.8	Cn1c2ccccc2c2[nH]cc3nc4ccccc4c-3c21
5.04	CCOC(=O)c1cc2c(cn1)oc1ccccc12
6.6	CCc1nc2c3ccccc3[nH]c2c2c1[nH]c1ccccc12
6.51	Clc1ccc2[nH]c3c[nH]c4c5cccc(Cl)c5nc-4c3c2c1
8.22	Oc1ccc2c(c1)[nH]c1c3c4ccccc4nc-3c[nH]c12
7.36	Nc1ccc2[nH]c3c[nH]c4c5ccccc5nc-4c3c2c1
5.92	O=[N+]([O-])c1ccc2[nH]c3c[nH]c4c5cc(Cl)ccc5nc-4c3c2c1
7.1	Clc1cccc2c1[nH]c1c3c4ccccc4nc-3c[nH]c12
8.4	O=[N+]([O-])c1ccc2[nH]c3c[nH]c4c5ccccc5nc-4c3c2c1
6.9	O=[N+]([O-])c1ccc2[nH]c3c[nH]c4c5ccc(Cl)cc5nc-4c3c2c1
8.15	Fc1ccc2c(c1)[nH]c1c3c4ccccc4nc-3c[nH]c12
6.94	Oc1ccc2[nH]c3c4c5ccccc5nc-4c[nH]c3c2c1
7.01	Nc1ccc2[nH]c3c[nH]c4c5ccc(Cl)cc5nc-4c3c2c1
9.51	O=C1C2C=Nc3ccccc3C2=NN1c1ccccc1 (centres undefined) [CGS-8216]
8.94	O=C1C2C=Nc3ccccc3C2=NN1c1ccc(Cl)cc1 (centres undefined) [CGS-9896]

SMILES	pIC50
COC(=O)c1cc2c(cn1)[nH]c1ccccc12 [BETA-CCM]	8.3
Cc1nccc2c1[nH]c1ccccc12 [HARMAN]	4.91
c1ccc2c(c1)[nH]c1cnccc12 [NORHARMANE]	5.79
